Data set [1] deals with T1, vanilloid receptor (TRPV1) (Rattus norvegicus, UniProt O35433).
T1 construct: The spinal cord was extirpated from an SPF/VAF rat; from tissue; host or cells: rat spinal cord membrane specimen (SPF/VAF rat, Charles River Laboratories Japan Inc.)
As to the kind of experiment: [3H]Resiniferatoxin ([3H]RTX) binding experiment using rat spinal cord. Conditions: rat spinal cord membrane specimen, 37° C., 60 minutes; read-out: IC50 of [3H]RTX specific binding. On the procedure:
[^3H]Resiniferatoxin ([^3H]RTX) Binding Experiment Using Rat Spinal Cord
The spinal cord was extirpated from an SPF/VAF rat (Charles River Laboratories Japan Inc.) and homogenized in an ice-cooled homogenization buffer (10 mmol/L HEPES/NaOH, 5 mmol/L KCl, 5.8 mmol/L NaCl, 2 mmol/L MgCl2, 0.75 mmol/L CaCl2, 12 mmol/L glucose, 137 mmol/L sucrose, pH 7.4). The resulting homogenate was centrifuged at 1000 g for 10 minutes at 4° C. The supernatant was centrifuged at 35000 g for 30 minutes at 4° C. The obtained precipitate was suspended in the homogenization buffer. The suspension was used as a tissue membrane specimen, and the protein concentration was determined using a protein assay staining solution (Bio-Rad Laboratories, US). The thus prepared specimen was stored at −80° C.
The known method [The Journal of Pharmacology and Experimental Therapeutics, 267: 728-733 (1993)] was modified and the modified method was performed. 400 μL of a membrane specimen solution (protein amount: about 50 μg) obtained by diluting the prepared specimen with an assay buffer (10 mmol/L HEPES/NaOH, 5 mmol/L KCl, 5.8 mmol/L NaCl, 2 mmol/L MgCl2, 0.75 mmol/L CaCl2, 12 mmol/L glucose, 137 mmol/L sucrose, 0.25 mg/mL bovine serum albumin, pH 7.4), 50 μL of a test compound solution, and 50 μL of [^3H]RTX (PerkinElmer Life Sciences Inc., US) were mixed and the mixture was incubated at 37° C. for 60 minutes. The reaction mixture was transferred on ice, and 50 μL of previously ice-cooled 2 mg/mL α1 acid glycoprotein (Sigma) was added thereto, and then, the mixture was centrifuged at 12000 g for 15 minutes at 4° C. A procedure in which 0.4 mL of the assay buffer was added to the obtained precipitate and the mixture was centrifuged at 12000 g for 15 minutes at 4° C. was performed twice. The precipitate obtained by the centrifugation was suspended in 0.5 mL of a 0.1 mol/L aqueous NaOH solution. 7 mL of Ultima Gold (Packard, US) was added to the suspension, and the radioactivity of the solution was measured using a liquid scintillation counter (LS6500: Beckman Coulter, Inc., US or TRI-CARB 2700TR: Packard, US). The [^3H]RTX binding amount in the presence of 0.1 μmol/L RTX was considered to be non-specific binding, and the specific binding was calculated by subtracting this value from the total amount of [^3H]RTX binding to the membrane specimen. Then, the replacement amount of the [^3H]RTX specific binding in the presence of the compound to the [^3H]RTX specific binding amount in the absence of the compound was calculated in percent. The IC50 value of the compound in this experiment was obtained from a logistic equation.
The logistic equation was fit to the following equation (equation 205 in the program) in the curve regression program XLfit (IDBS Inc.).
Y: Inhibition ratio X: Concentration of test compound

Data set [2] deals with entrapment nerve injury rat. As to the kind of experiment: Neuropathic pain inhibitory activity in entrapment nerve injury rat (von Frey pain threshold). It counts as in vivo. Conditions: orally administered, dose of 20 mg/kg or less, measured after 1 hour, von Frey filaments. An excerpt: Neuropathic Pain Inhibitory Activity of Compound in Entrapment Nerve Injury Rat
The method of Mosconi, Kruger et al. (Pain, vol. 64, pp. 37-57 (1996)) was modified partially and an entrapment nerve injury rat was produced.
By using a male Crl:CD(SD) rat, the sciatic nerve of the left hind limb was exfoliated under pentobarbital anesthesia, and the exfoliated region was covered with a polyethylene tube (trade name: Intramedic, size: PE-60, manufactured by Becton Dickinson and Company) with a length of 2 mm. On days 14 to 21 after the surgery, the rat was placed in a stainless-steel connected cage (750 mm (length)×210 mm (depth)×170 mm (height)) consisting of 5 cages connected in a row and having a mesh floor and was acclimated to the environment for at least 20 minutes, and then, the pain was evaluated.
The pain was evaluated using von Frey filaments (trade name: touch test sensory evaluator, Model number: model 58011, manufactured by Muromachi Kikai), and the results were calculated as a pain threshold. That is, by using a von Frey filament of different stimulation intensity, stimulation was given to the paw at the injured side of the entrapment nerve injury rat, and the stimulation intensity at which the paw was withdrawn was obtained. Then, the pain threshold (paw withdrawal threshold) (g) was calculated by the up down method of Dixon [Annual Review of Pharmacology and Toxicology, vol. 20, pp. 441-462 (1980)]. Incidentally, the pain threshold of a normal rat was from 10 to 12 g on an average.
In the evaluation of the test compound, a rat having a 50% pain threshold of less than 4 g was used, and the test compound was dissolved in a 0.5% aqueous methyl cellulose solution and orally administered at a dose of 5 mL/kg. After 1 hour, by using von Frey filaments, the pain threshold was measured.

Where a name gives a salt, the structure may show the parent alone. Bounds are passed on as bounds.

The source of these data is US20090203667A1, “PENTADIENAMIDE DERIVATIVES” (Kyowa Hakko Kirin Co., Ltd., priority 2006, published 2009).

The IC50 is the midpoint of a concentration-inhibition curve. As a reminder, the melting point is the temperature of the solid-liquid transition.

T1 sequence (O35433 whole entry): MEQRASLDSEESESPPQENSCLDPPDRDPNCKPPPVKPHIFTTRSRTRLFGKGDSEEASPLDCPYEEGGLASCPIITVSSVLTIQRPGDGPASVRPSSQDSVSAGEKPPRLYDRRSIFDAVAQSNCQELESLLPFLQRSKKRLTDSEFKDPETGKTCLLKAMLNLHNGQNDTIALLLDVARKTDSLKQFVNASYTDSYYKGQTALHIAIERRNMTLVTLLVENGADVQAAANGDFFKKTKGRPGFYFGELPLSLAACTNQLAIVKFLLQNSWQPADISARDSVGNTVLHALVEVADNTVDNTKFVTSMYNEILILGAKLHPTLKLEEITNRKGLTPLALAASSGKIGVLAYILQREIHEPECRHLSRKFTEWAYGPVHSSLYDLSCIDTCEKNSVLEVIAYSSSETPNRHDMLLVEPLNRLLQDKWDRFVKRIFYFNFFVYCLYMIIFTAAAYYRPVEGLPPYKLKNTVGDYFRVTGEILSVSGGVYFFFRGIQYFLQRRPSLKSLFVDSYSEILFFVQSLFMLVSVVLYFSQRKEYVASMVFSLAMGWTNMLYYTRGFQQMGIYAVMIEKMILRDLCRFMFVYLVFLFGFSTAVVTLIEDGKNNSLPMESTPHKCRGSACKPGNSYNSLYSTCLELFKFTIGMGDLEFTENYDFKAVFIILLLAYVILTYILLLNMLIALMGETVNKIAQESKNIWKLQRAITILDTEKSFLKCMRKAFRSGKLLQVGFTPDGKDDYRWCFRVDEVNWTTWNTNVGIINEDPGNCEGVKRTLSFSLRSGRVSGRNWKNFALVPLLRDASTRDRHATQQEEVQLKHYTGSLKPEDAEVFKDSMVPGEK

`CCOc1ccc(/C(=C\C=C\C(=O)Nc2cccc3c2CC(O)CN3)c2ccc(C(F)(F)F)cc2)cc1` (stereo not drawn) [Compound 240, (2E,4Z)-5-(4-Ethoxyphenyl)-N-(3-hydroxy-1,2,3,4-tetrahydroquinolin-5-yl)-5-[4-(trifluoromethyl)phenyl]-2,4-pentadienamide monohydrochloride]: in data set [1], the half-maximal inhibitory concentration (IC50) is less than 100 nM. Further, the “pain threshold (paw withdrawal threshold)” value (from here on “pain threshold”) in data set [2] was “significantly increases the pain threshold”.
In the same order, the values of `CC(C)Oc1ccc(/C(=C\C=C\C(=O)Nc2cccc3[nH]ncc23)c2ccc(C(F)(F)F)cc2)cc1` [Compound 178, (2E,4Z)-N-(1H-Indazol-4-yl)-5-(4-isopropoxyphenyl)-5-[4-(trifluoromethyl)phenyl]-2,4-pentadienamide] are less than 100 nM and “significantly increases the pain threshold”.
The like results for `O=C(/C=C/C=C(\c1ccc(OC2COC2)cc1)c1ccc(C(F)(F)F)cc1)Nc1cccc2c1CC(O)C(=O)N2` (stereo not drawn) [Compound 314, (2E,4Z)-N-(3-Hydroxy-2-oxo-1,2,3,4-tetrahydroquinolin-5-yl)-5-[4-(oxetan-3-yloxy)phenyl]-5-[4-(trifluoromethyl)phenyl]-2,4-pentadienamide] were, in that order, less than 100 nM and “significantly increases the pain threshold”.
Turning to `CCOc1ccc(/C(=C\C=C\C(=O)Nc2ccccc2C(O)CO)c2ccc(C(F)(F)F)cc2)cc1` (stereo not drawn) [Compound 163, (2E,4Z)-N-[2-(1,2-Dihydroxyethyl)phenyl]-5-(4-ethoxyphenyl)-5-[4-(trifluoromethyl)phenyl]-2,4-pentadienamide], the IC50 in data set [1] is less than 100 nM.
As to `CCOc1ccc(/C(=C\C=C\C(=O)Nc2cccc3c2CC(O)C(=O)N3)c2ccc(C(F)(F)F)cc2)cc1` (stereo not drawn) [Compound 257, (2E,4Z)-N-(3-Hydroxy-2-oxo-1,2,3,4-tetrahydroquinolin-5-yl)-5-(4-ethoxyphenyl)-5-[4-(trifluoromethyl)phenyl]-2,4-pentadienamide], the half-maximal inhibitory concentration (IC50) in data set [1] is less than 100 nM. Also, the “pain threshold” value in data set [2] is recorded as “significantly increases the pain threshold”.
In the same order, the values of `CCOc1ccc(/C(=C\C=C\C(=O)Nc2cccc3c2CC(O)C(=O)N3)c2ccc(Cl)cc2)cc1` (stereo not drawn) [Compound 310, (2E,4E)-5-(4-Chlorophenyl)-5-(4-ethoxyphenyl)-N-(3-hydroxy-2-oxo-1,2,3,4-tetrahydroquinolin-5-yl)-2,4-pentadienamide] are less than 100 nM and “significantly increases the pain threshold”.
For the compound `O=C(/C=C/C=C(\c1ccccc1)c1ccc(C(F)(F)F)cc1)Nc1cccc2cnccc12` [Compound 59, (2E,4E)-N-(Isoquinolin-5-yl)-5-phenyl-5-[4-(trifluoromethyl)phenyl]-2,4-pentadienamide], the melting point is 114 to 115 °C. Further, the IC50 in data set [1] was less than 100 nM.
In the same order, the values of `O=C(/C=C/C=C(c1ccc(C(F)(F)F)cc1)c1ccc(C(F)(F)F)cc1)Nc1cccc2cnccc12` [Compound 11, (E)-N-(Isoquinolin-5-yl)-5,5-bis[4-(trifluoromethyl)phenyl]-2,4-pentadienamide] are 164 to 166 °C and less than 100 nM.
Take `CC(C)(C)Oc1ccc(/C(=C\C=C\C(=O)Nc2cccc3c2CC(O)C(=O)N3)c2ccc(C(F)(F)F)cc2)cc1` (stereo not drawn) [Compound 191, (2E,4Z)-5-(4-tert-Butoxyphenyl)-N-(3-hydroxy-2-oxo-1,2,3,4-tetrahydroquinolin-5-yl)-5-[4-(trifluoromethyl)phenyl]-2,4-pentadienamide]: the IC50 in data set [1] was less than 100 nM. In addition, the “pain threshold” value in data set [2] is “significantly increases the pain threshold”.
In the same order, the values of `CN(C)c1ccc(/C(=C\C=C\C(=O)Nc2cccc3c2CC(O)CN3)c2ccc(C(F)(F)F)cc2)cc1.Cl.Cl` (stereo not drawn) [Compound 270, (2E,4Z)-5-[4-(N,N-Dimethylamino)phenyl]-N-(3-hydroxy-1,2,3,4-tetrahydroquinolin-5-yl)-5-[4-(trifluoromethyl)phenyl]-2,4-pentadienamide Dihydrochloride] are less than 100 nM and “significantly increases the pain threshold”.
The like results for `Cc1cccc(/C(=C\C=C\C(=O)Nc2cccc3c2CC(O)C(=O)N3)c2ccc(C(F)(F)F)cc2)c1` (stereo not drawn) [Compound 188, (2E,4Z)-N-(3-Hydroxy-2-oxo-1,2,3,4-tetrahydroquinolin-5-yl)-5-(3-methylphenyl)-5-[4-(trifluoromethyl)phenyl]-2,4-pentadienamide] were, in that order, less than 100 nM and “significantly increases the pain threshold”.
As to `N#Cc1cccc(/C(=C\C=C\C(=O)Nc2cccc3cnccc23)c2ccc(C(F)(F)F)cc2)c1` [Compound 68, (2E,4Z)-5-(3-Cyanophenyl)-N-(isoquinolin-5-yl)-5-[4-(trifluoromethyl)phenyl]-2,4-pentadienamide], the melting point was 118 to 119 °C. The IC50 in data set [1] is less than 100 nM.
As to `O=C(/C=C/C=C(/c1ccc(C(F)(F)F)cc1)c1ccco1)Nc1cccc2cnccc12` [Compound 63, (2E,4Z)-5-(Furan-2-yl)-N-(isoquinolin-5-yl)-5-[4-(trifluoromethyl)phenyl]-2,4-pentadienamide], the “pain threshold” value in data set [2] is given as “significantly increases the pain threshold”.
The compound `O=C(/C=C/C=C(c1ccc(C(F)(F)F)cc1)c1ccc(C(F)(F)F)cc1)Nc1cccc2ccc(O)cc12` [Compound 10, (E)-N-(7-Hydroxynaphthalen-1-yl)-5,5-bis[4-(trifluoromethyl)phenyl]-2,4-pentadienamide] displayed a melting point of 249 to 251 °C. The IC50 in data set [1] is less than 100 nM.
In the case of `CC(C)Oc1ccc(/C(=C\C=C\C(=O)Nc2cccc3c2CC(O)C(=O)N3)c2ccc(C(F)(F)F)cc2)cc1` (stereo not drawn) [Compound 229, (2E,4Z)-N-(3-Hydroxy-2-oxo-1,2,3,4-tetrahydroquinolin-5-yl)-5-(4-isopropoxyphenyl)-5-[4-(trifluoromethyl)phenyl]-2,4-pentadienamide], the concentration for half-maximal inhibition (IC50) in data set [1] was less than 100 nM. Also, in data set [2], the “pain threshold” value is listed as “significantly increases the pain threshold”.
In the case of `O=C(/C=C/C=C(c1ccc(C(F)(F)F)cc1)c1ccc(C(F)(F)F)cc1)Nc1cncc(CO)c1` [Compound 25, (E)-N-[(5-Hydroxymethyl)pyridin-3-yl]-5,5-bis[4-(trifluoromethyl)phenyl]-2,4-pentadienamide], the melting point is 255 to 257 °C. In addition, in data set [1], the half-maximal inhibitory concentration (IC50) was less than 100 nM.
